From patent US11891601B2, “Method to enhance the transcription regulation of SUPT4H on genes containing repetitive nucleotide sequences” (National Yang-Ming University, priority 2018, dated 2024)

Test system: R-loops in genes containing lengthy CAG repeats, including mutant HTT
Assay: DIP assay of R-loops in genes with lengthy CAG repeats, including mutant HTT, in murine neuronal cells
Type: cell-based, mouse
Conditions: 30 μM tropolone for 12 hours in Hdh cells
Method: Yeast cells were collected after culturing in 2% galactose-containing medium for 12 hours, and then grinded by glass beads in the presence of 300 μl extraction buffer (10 mM Tris-HCl pH 8.0, 10 mM EDTA, 200 mM NaCl, 1% SDS, 2% Triton X-100, 25 units RNase inhibitor). The nucleic acid mixture was subjected to sonication (Bioruptor UCD-200) and extracted by phenol (pH 8.0). Purified chromatin DNA and RNA, with or without RNase H treatment for 90 minutes, was precipitated by monoclonal antibody S9.6 bound to protein G agarose beads. […] The RNA/DNA hybrid (R-loop) signal was analyzed by qPCR and the Quantitative-Comparative CT (MCT) program. In yeast experiments, a pair of primers (Primer-B F and Primer-B R) were used to quantify R-loop signal in the vicinity of CAG repeats and the primer set AMP was used as a control. […] For Hdh^Q7/Q7 and Hdh^Q111/Q111, mouse HTT DIP primer set was used to quantify R-loop signal of the CAG repeating region and Tubal a DIP primer set was included as a control. […]
Please refer to FIG. 7. […] RNA was extracted and analyzed by real-time RT-qPCR to measure the quantity of HTT, SUPT4H and snRNA U6. […] HTT, SUPT4H, TATA-box binding protein (TBP) were measured. […] Analogous to FIG. 7(C), the quantification of HTT protein levels is shown in bottom panel.

O=c1cccccc1O [Tropolone]
R-loops in genes containing lengthy CAG repeats, including mutant HTT: able to increase R-loops
